Results: PubChem BioAssay (NCI)
Several values for one entry are separate records, joined by “and”; a condition that tells them apart may be missing. Equal values may be shown once.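 48-hour exposure; five concentrations; linearly interpolated endpoints. At the GI50, growth is halved. TGI marks complete inhibition of growth.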 Where a SMILES comes first, the peptide text is derived from it. Bridges are numbered along the chain shown (N, C = ends). [ ]: non-standard residue; d: D form. aThr = C[C@H](O)[C@H](N)C(=O)O

Tests used:
Assay in all cases: DTP human tumour cell line panel, 48 h
MCF7 breast = test system: MCF7 breast
HCT-15 colon = test system: HCT-15 colon
OVCAR-3 ovarian = test system: OVCAR-3 ovarian
NCI-H522 lung = test system: NCI-H522 lung
NCI-H23 lung = test system: NCI-H23 lung
SK-MEL-28 melanoma = test system: SK-MEL-28 melanoma
SN12C renal = test system: SN12C renal
HCT-116 colon = test system: HCT-116 colon
RXF 393 renal = test system: RXF 393 renal
COLO 205 colon = test system: COLO 205 colon

Compound	GI50 (MCF7 breast)	TGI (MCF7 breast)	GI50 (HCT-15 colon)	TGI (HCT-15 colon)	GI50 (OVCAR-3 ovarian)	TGI (OVCAR-3 ovarian)	GI50 (NCI-H522 lung)	TGI (NCI-H522 lung)	GI50 (NCI-H23 lung)	TGI (NCI-H23 lung)	GI50 (SK-MEL-28 melanoma)	TGI (SK-MEL-28 melanoma)	GI50 (SN12C renal)	TGI (SN12C renal)	GI50 (HCT-116 colon)	TGI (HCT-116 colon)	GI50 (RXF 393 renal)	TGI (RXF 393 renal)	GI50 (COLO 205 colon)	TGI (COLO 205 colon)
CCN(CC)c1ccc2nc3ccc(=[N+](CC)CC)cc-3oc2c1	0.029 µM	0.276 µM	1.49 µM	> 64.8 µM	0.0318 µM	0.362 µM	0.0534 µM	0.329 µM	0.097 µM	1.27 µM	1.5 µM	27.7 µM	0.153 µM	15.2 µM	0.0402 µM	1.27 µM	1.63 µM	9.84 µM	0.0222 µM	0.86 µM
CC(=O)O[C@H]1CC2C(C3CC[C@H](C(C)CCC(=O)O)[C@]31C)[C@H](OC(C)=O)C[C@@H]1CC3(CC[C@]21C)OOC1(CCC(C)CC1)OO3 (stereo not given in full)	–	30.4 µM and 38.1 µM	–	13.9 µM and 7.4 µM	4.65 µM and 2.13 µM	16.4 µM and 5.44 µM	–	12.3 µM and 3.48 µM	–	15.8 µM and 5.43 µM	–	11.8 µM and 13.2 µM	–	18.3 µM and 9.27 µM	–	13.9 µM and 5.9 µM	–	27.9 µM and 23.9 µM	–	8.21 µM and 4.4 µM
CCOC(=O)/C(=C\c1cccc(C)c1)C(C)=O	–	35.4 µM	–	38.9 µM	–	28.1 µM	–	22.8 µM	–	39 µM	–	30.5 µM	–	41.7 µM	–	30.4 µM	–	24.9 µM	–	41 µM
Cc1cccc(Cn2cc(CO)c3cnccc32)c1	51.3 µM	> 100 µM	> 100 µM	> 100 µM	40.1 µM	> 100 µM	60.3 µM	> 100 µM	19.2 µM	> 100 µM	> 100 µM	> 100 µM	> 100 µM	> 100 µM	36.8 µM	> 100 µM	> 100 µM	> 100 µM	> 100 µM	> 100 µM
COCCOC1=C(Cl)C(=O)c2ccccc2C1=O	3.06 µM	14.7 µM	2.88 µM	9.65 µM	1.66 µM	3.06 µM	1.47 µM	2.9 µM	3.24 µM	13.5 µM	3.22 µM	10.9 µM	3.91 µM	16.5 µM	1.82 µM	3.58 µM	3.31 µM	10.2 µM	3.63 µM	12.2 µM
CC(C)C[C@@H]1NC(=O)[C@@H]2CCCN2C(=O)[C@@H]2CCCN2C(=O)[C@H](CC(C)C)NC(=O)[C@H](CO)NC(=O)[C@H](CCCCN)NC(=O)[C@H]([C@H](C)O)NC(=O)[C@@H]2CSSC[C@@H](NC1=O)C(=O)N[C@@H](Cc1ccccc1)C(=O)N1CCC[C@H]1C(=O)N[C@@H](CC(=O)O)C(=O)NCC(=O)N[C@@H](CCCN=C(N)N)C(=O)N2 (cyclo(C[aThr]KSLPPL[dC]FPDGR); disulfide 1-9)	> 50 µM	> 50 µM	> 50 µM	> 50 µM	> 50 µM	> 50 µM	> 50 µM	> 50 µM	> 50 µM	> 50 µM	> 50 µM	> 50 µM	> 50 µM	> 50 µM	> 50 µM	> 50 µM	> 50 µM	> 50 µM	> 50 µM	> 50 µM
COc1cc(OC)c(OC)cc1/C=C/c1nc2ccccc2s1	–	> 100 µM	–	> 100 µM	–	> 100 µM	–	> 100 µM	–	> 100 µM	–	> 100 µM	–	> 100 µM	–	> 100 µM	–	> 100 µM	–	> 100 µM
NC(N)=NCCCC(NCc1c2ccccc2nc2ccccc12)C(=O)O (stereo not given)	–	> 100 µM	–	> 100 µM	–	> 100 µM	–	69.9 µM	–	> 100 µM	–	> 100 µM	–	> 100 µM	–	> 100 µM	–	> 100 µM	–	> 100 µM
CSc1nc2nc(-c3ccccc3)c(C)c-2c2n1C(C)C(=O)N2 (stereo not given)	25.8 µM	> 100 µM	51.2 µM	> 100 µM	26.8 µM	81.8 µM	38.1 µM	> 100 µM	–	–	43.4 µM	> 100 µM	52.6 µM	> 100 µM	37.4 µM	> 100 µM	30.6 µM	> 100 µM	41.4 µM	> 100 µM
C(=Nc1nc(SCc2ccccc2)nc2[nH]ncc12)c1cccs1	40.4 µM	> 100 µM	85.4 µM	> 100 µM	> 100 µM	> 100 µM	59.2 µM	> 100 µM	66.4 µM	> 100 µM	31.3 µM	> 100 µM	> 100 µM	> 100 µM	–	–	47.1 µM	> 100 µM	22.2 µM	76.4 µM
COc1ccc(Nc2cnc3cc(N)cc(N)c3n2)cc1	18.4 µM	40.9 µM	–	–	11.4 µM	27.3 µM	16.6 µM	43.6 µM	2.02 µM	7.65 µM	21.2 µM	44.8 µM	15.6 µM	37 µM	23.8 µM	54.1 µM	17.6 µM	39.6 µM	30.5 µM	> 100 µM
